Legend:
Assay type in all cases: cell-based
[1] = system: L1210 (mouse lymphocytic leukemia); test: Test on cell proliferation (MTT test), L1210; conditions: 48 hours
Procedure: (§1) a. Eight tumoral cell lines are used in this study: L1210 (mouse lymphocytic leukemia), HCT15 and LOVO (cell lines of human colon adenocarcinoma), A549 (human lung carcinoma), A172, U373 et U87 (human glioblastoma). All these lines are obtained from the American Type Culture Collection (ATCC), Rockville, Md. The L1210 cell cultures in suspension are cultured in Dulbecco's modified Eagle's medium (DMEM) (BioWhitaker, Verviers, Belgium) together with 10% of foetal calf serum inactivated by heating, 2 mM of glutamine, 50 μg/ml of penicillin and 50 μg/ml of streptomycin. The HT29 cells are cultured in mono-layer cultures in a McCoy 5a medium (Gibco, Paisley, United Kingdom) together with 10% of foetal calf serum inactivated by heat plus 2 mM of glutamine and 50 μg/ml of gentamycin. The other cells are cultured in an Earle's modified essential medium (EMEM; Gibco, Paisley, United Kingdom) together with 5% foetal calf serum inactivated by heat, 2 mM of glutamine, 50 U/ml of penicillin and 50 μg/ml of streptomycin. All the cell lines are cultured at 37° C. in a humidified atmosphere containing 95% air and 5% CO2.
(§2) Inhibition of the tumor cell line proliferation is determined using an MTT test. 1500 L1210 cells in a culture medium (according to the needs of the cell medium) are seeded in a well of a micro-well plate (tissue culture level: 96 wells, flat bottom) 24 hours before treatment with the compounds to be tested. For these dose-response studies, the cells are incubated with each of the compounds to be tested or their corresponding solvent (controls) for 48 hours over a final concentration range of 1.10^−10 to 1.10^−4 M. All the compounds are dissolved just before use in dimethylsulphoxide (DMSO) at a concentration of 50 mM. Other dilutions of the medicaments are carried out in the culture medium. The final concentration of DMSO never exceeds 0.2% (v/v). As controls, the solutions of medicaments are replaced with the solvent which is diluted successively in the same way as the compounds to be tested.
(§3) After the incubation period, the labeling reagent MTT (3-[4,5-dimethylthiazol-2-yl]-2,5-diphenyltetrazolium bromide; Thiazol blue, Sigma M 565, Sigma, St Louis, Mo.) is added at a final concentration of 0.3 mg/ml to each well. The cells are incubated for 4 hours at 37° C. in a humidified atmosphere. This stage allows the mitochondrial dehydrogenase of the living cells to convert the yellow tetrazolium salt MTT into crimson formazan crystals. The supernatant part is eliminated and the formazan crystals formed are solubilized with DMSO. The resultant coloured solution is quantified by absorbance at 570 nm by using a multi-cuvette scanning spectrophotometer. The data concerning the proliferation is expressed as a percentage of living cells in the treated wells, divided by the living cells in the controls. Each point represents the average of three independent experiments, each experiment represents six determinations.
(§4) The results are expressed as percentages of the calculated proliferation by the optical density (OD) of the cells treated with a medicament divided by the OD of the control cells (cells treated with DMSO). As represented in Table II, the compounds to be tested have inhibited the proliferation of cells in a dose-dependent manner.

[2] = system: U373 (human glioblastoma); test: Test on cell proliferation (MTT test), U373; conditions: 72 hours
Procedure: as §1, §2, §3
(§5) For the other cell lines (HCT15, LOVO, A549, A172, U373, U87), 1000 to 2000 cells are seeded in the well of a micro-well plate 24 hours before medicinal treatment. […]
as §4

[3] = system: A549 (human lung carcinoma); test: Test on cell proliferation (MTT test), A549; conditions: 72 hours
Procedure: as §1, §2, §3, §5, §4

[4] = system: LOVO (cell lines of human colon adenocarcinoma); test: Test on cell proliferation (MTT test), LOVO; conditions: 72 hours
Procedure: as §1, §2, §3, §5, §4

[5] = system: A172 (human glioblastoma); test: Test on cell proliferation (MTT test), A172; conditions: 72 hours
Procedure: as §1, §2, §3, §5, §4

U87 (human glioblastoma) = test: Test on cell proliferation (MTT test), U87; conditions: 72 hours
Procedure: as §1, §2, §3, §5, §4

[6] = system: HCT15 (cell lines of human colon adenocarcinoma); test: Test on cell proliferation (MTT test), HCT15; conditions: 72 hours
Procedure: as §1, §2, §3, §5, §4

For CCc1c2c(nc3ccccc13)-c1cc(C(O)(CC)CC(=O)O)c(CO)c(=O)n1C2 (stereo not shown) [Example 10, 3-[12-ethyl-8-(hydroxymethyl)-9-oxo-9,11-dihydroindolizino[1,2-b]quinolin-7-yl]-3-hydroxypentanoic acid], the “PERCENTAGE OF CELL PROLIFERATION” value ([1]; 0.1 nM) was 91.51%, the “PERCENTAGE OF CELL PROLIFERATION” value ([1]; 1 nM) was 97.94% and the “PERCENTAGE OF CELL PROLIFERATION” value ([1]; 10 nM) was 89.28%. For the same compound, the “PERCENTAGE OF CELL PROLIFERATION” value ([1]; 100 nM) was 67.32%, the “PERCENTAGE OF CELL PROLIFERATION” value ([1]; 1 000 nM) was 31.51% and the “PERCENTAGE OF CELL PROLIFERATION” value ([1]; 10 000 nM) was 19.78%. For the same compound, the “PERCENTAGE OF CELL PROLIFERATION” value ([1]; 100 000 nM) was 3.65%, the “PERCENTAGE OF CELL PROLIFERATION” value ([2]; 0.1 nM) was 96.00% and the “PERCENTAGE OF CELL PROLIFERATION” value ([2]; 1 nM) was 104.00%. The “PERCENTAGE OF CELL PROLIFERATION” value ([2]; 10 nM) was 87.00%, the “PERCENTAGE OF CELL PROLIFERATION” value ([2]; 100 nM) was 35.00% and the “PERCENTAGE OF CELL PROLIFERATION” value ([2]; 1 000 nM) was 20.00%. For the same compound, the “PERCENTAGE OF CELL PROLIFERATION” value ([2]; 10 000 nM) was 10.00%, the “PERCENTAGE OF CELL PROLIFERATION” value ([2]; 100 000 nM) was 2.00% and the “PERCENTAGE OF CELL PROLIFERATION” value ([3]; 0.1 nM) was 71.00%. The “PERCENTAGE OF CELL PROLIFERATION” value ([3]; 1 nM) was 76.00%, the “PERCENTAGE OF CELL PROLIFERATION” value ([3]; 10 nM) was 71.00% and the “PERCENTAGE OF CELL PROLIFERATION” value ([3]; 100 nM) was 56.00%. For the same compound, the “PERCENTAGE OF CELL PROLIFERATION” value ([3]; 1 000 nM) was 36.00%, the “PERCENTAGE OF CELL PROLIFERATION” value ([3]; 10 000 nM) was 22.00% and the “PERCENTAGE OF CELL PROLIFERATION” value ([3]; 100 000 nM) was 7.00%. For the same compound, the “PERCENTAGE OF CELL PROLIFERATION” value ([4]; 0.1 nM) was 71.00%, the “PERCENTAGE OF CELL PROLIFERATION” value ([4]; 1 nM) was 76.00% and the “PERCENTAGE OF CELL PROLIFERATION” value ([4]; 10 nM) was 77.00%. For the same compound, the “PERCENTAGE OF CELL PROLIFERATION” value ([4]; 100 nM) was 52.00%, the “PERCENTAGE OF CELL PROLIFERATION” value ([4]; 1 000 nM) was 29.00% and the “PERCENTAGE OF CELL PROLIFERATION” value ([4]; 10 000 nM) was 18.00%. For the same compound, the “PERCENTAGE OF CELL PROLIFERATION” value ([4]; 100 000 nM) was 4.00%, the “PERCENTAGE OF CELL PROLIFERATION” value ([5]; 0.1 nM) was 93.00% and the “PERCENTAGE OF CELL PROLIFERATION” value ([5]; 1 nM) was 92.00%. The “PERCENTAGE OF CELL PROLIFERATION” value ([5]; 10 nM) was 91.00%, the “PERCENTAGE OF CELL PROLIFERATION” value ([5]; 100 nM) was 60.00% and the “PERCENTAGE OF CELL PROLIFERATION” value ([5]; 1 000 nM) was 39.00%. The “PERCENTAGE OF CELL PROLIFERATION” value ([5]; 10 000 nM) was 15.00%, the “PERCENTAGE OF CELL PROLIFERATION” value ([5]; 100 000 nM) was 3.00% and the “PERCENTAGE OF CELL PROLIFERATION” value (U87 (human glioblastoma); 0.1 nM) was 96.00%. The “PERCENTAGE OF CELL PROLIFERATION” value (U87 (human glioblastoma); 1 nM) was 79.00%, the “PERCENTAGE OF CELL PROLIFERATION” value (U87 (human glioblastoma); 10 nM) was 89.00% and the “PERCENTAGE OF CELL PROLIFERATION” value (U87 (human glioblastoma); 100 nM) was 17.00%. For the same compound, the “PERCENTAGE OF CELL PROLIFERATION” value (U87 (human glioblastoma); 1 000 nM) was 6.00%, the “PERCENTAGE OF CELL PROLIFERATION” value (U87 (human glioblastoma); 10 000 nM) was 5.00% and the “PERCENTAGE OF CELL PROLIFERATION” value (U87 (human glioblastoma); 100 000 nM) was 2.00%. For the same compound, the “PERCENTAGE OF CELL PROLIFERATION” value ([6]; 0.1 nM) was 111.00%, the “PERCENTAGE OF CELL PROLIFERATION” value ([6]; 1 nM) was 87.00% and the “PERCENTAGE OF CELL PROLIFERATION” value ([6]; 10 nM) was 103.00%. For the same compound, the “PERCENTAGE OF CELL PROLIFERATION” value ([6]; 100 nM) was 63.00%, the “PERCENTAGE OF CELL PROLIFERATION” value ([6]; 1 000 nM) was 42.00% and the “PERCENTAGE OF CELL PROLIFERATION” value ([6]; 10 000 nM) was 17.00%. The “PERCENTAGE OF CELL PROLIFERATION” value ([6]; 100 000 nM) was 9.00%.
